Test: recombinant UMI read abundance after kanamycin selection (control-corrected) (log10(CPM+1)); higher = more efficient recombination; extreme values may be limits of the assay; sequences stand for … in AGTGCAGAGAAAATCGGCCAGTTTTCTCTGCCTGCAGTCCGCATGCCGTGGGACCCCTTGGGTTCTAACCTGTTGCCTAGATTTATGCAGCGGACTGCCTTTCTCCCAAAGTGATAAACCGG…AGGTTGGTTTCACT; site = the 11-nt donor
How it was run: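 Each donor and donor-binding-loop pair was tracked by a 12-nt UMI on a plasmid carrying a promoterless kanamycin gene. With a second plasmid supplying a fixed target and T7-inducible IS621 bridge recombinase, the pool was plated in Escherichia coli on IPTG (0.07 mM) plus kanamycin or unselected. Sequencing of recombinant UMIs across the donor–target junction gave counts expressed as log10(CPM+1) after replicate averaging and control-derived scaling.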
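Also: IS621 bridge recombinase in Escherichia coli cells against a fixed T5 target plasmid.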

Sequence	recombinant UMI read abundance (log10)
GGATCAGCATGGACCGGTTTTCCCGGTAATCCGTATTTGAA (site GGATCAGCTTT)	1.19
TGCCTAACATGGACCGGTTTTCCCGGTAATCCGTATTTGAA (site TGCCTAACTTT)	0.0425
GTGCATGCATGGACCGGTTTTCCCGGTAATCCGTATTTGTT (site GTGCATGCTAA)	2.04
CAACTCCCATGGACCGGTTTTCCCGGTAATCCGTATTTGCT (site CAAGTCCCTAG)	0.00625
TTTACGGCATGGACCGGTTTTCCCGGTAATCCGTATTTGCT (site TTTGCGGCTAG)	0.00519
AAATATGCATGGACCGGTTTTCCCGGTAATCCGTATTTGGA (site AACTATGCTTC)	1
CAATGATCATGGACCGGTTTTCCCGGTAATCCGTATTTGCT (site CGATCATCTAG)	0
CAGACATCATGGACCGGTTTTCCCGGTAATCCGTATTTGCT (site CGGACATCTAG)	1.16
TTTGCCGCATGGACCGGTTTTCCCGGTAATCCGTATTTGCT (site TTTGCCGCTAG)	0.548
CGGAAACCATGGACCGGTTTTCCCGGTAATCCGTATTTGAT (site CGGTAACCTAT)	0
GTAGGTACATGGACCGGTTTTCCCGGTAATCCGTATTTGTC (site GTAGGTACTGA)	1.99
AAGGGTCCATGGACCGGTTTTCCCGGTAATCCGTATTTGAT (site AAGGGTCCTAT)	0.0248
GACCGTCCATGGACCGGTTTTCCCGGTAATCCGTATTTGAT (site GACCGTCCTAT)	0.0192
TATTTCGCATGGACCGGTTTTCCCGGTAATCCGTATTTGTG (site TATTTAGCTCA)	0.00938
TCTATAGCATGGACCGGTTTTCCCGGTAATCCGTATTTGAC (site TCTATAGCTGT)	0
ATAGTGGCATGGACCGGTTTTCCCGGTAATCCGTATTTGGC (site ATAGTGGCTGC)	2.85
GAGCGCTCATGGACCGGTTTTCCCGGTAATCCGTATTTGCG (site GAGCGCTCTCG)	2.26
TATTTGGCATGGACCGGTTTTCCCGGTAATCCGTATTTGTA (site TATTTGGCTAA)	0.00533
ACAGTATCATGGACCGGTTTTCCCGGTAATCCGTATTTGCA (site ACAGTCACTTG)	2.03
TTGGAGGCATGGACCGGTTTTCCCGGTAATCCGTATTTGTG (site TTGGAGGCTCA)	0.791
TAGCACGCATGGACCGGTTTTCCCGGTAATCCGTATTTGGG (site CAGCACGCTCC)	0.00759
CCTTTCTCATGGACCGGTTTTCCCGGTAATCCGTATTTGCG (site CCTTTCTCTCG)	0
TTAGTTACATGGACCGGTTTTCCCGGTAATCCGTATTTGGC (site TTAGTTACTGC)	0.857
ACAGTATCATGGACCGGTTTTCCCGGTAATCCGTATTTGCA (site ACAGGACCTTG)	0
ACAGTATCATGGACCGGTTTTCCCGGTAATCCGTATTTGCA (site ACACTAGCTTG)	0.00526

Sequence	recombinant UMI read abundance (log10)
GCAGACCCATGGACCGGTTTTCCCGGTAATCCGTATTTGGG (site GCAGACCCTCC)	0.0178
CGACGACCATGGACCGGTTTTCCCGGTAATCCGTATTTGGG (site CGAGGACCTCC)	0.0314
AGGTACACATGGACCGGTTTTCCCGGTAATCCGTATTTGCA (site AGGAAGACTTG)	0
CGTTTGGCATGGACCGGTTTTCCCGGTAATCCGTATTTGGT (site CGTTTGGCTAC)	1.31
CGGGAACCATGGACCGGTTTTCCCGGTAATCCGTATTTGAA (site CGGGAACCTTT)	0
CGGAAGACATGGACCGGTTTTCCCGGTAATCCGTATTTGAA (site CGGAAGACTTT)	2.24
CCATCTACATGGACCGGTTTTCCCGGTAATCCGTATTTGTG (site GCATCTACTCA)	0.00588
GGTACGTCATGGACCGGTTTTCCCGGTAATCCGTATTTGTC (site GGTACGTCTTA)	0.0125
TCGACACCATGGACCGGTTTTCCCGGTAATCCGTATTTGGA (site TCGACACCTTC)	0.0336
CTACTAACATGGACCGGTTTTCCCGGTAATCCGTATTTGGA (site CAACTAACTTC)	0.0111
GGTCCATCATGGACCGGTTTTCCCGGTAATCCGTATTTGTA (site GGTCCAACTTA)	0.016
GTGCTTACATGGACCGGTTTTCCCGGTAATCCGTATTTGGC (site GTGCTTACTGC)	1.9
CGAGTGGCATGGACCGGTTTTCCCGGTAATCCGTATTTGGT (site AGAGTGGCTAC)	0.574
AGCTCTGCATGGACCGGTTTTCCCGGTAATCCGTATTTGGT (site AGCTCTGCTAC)	1.36
TTCGCTGCATGGACCGGTTTTCCCGGTAATCCGTATTTGTG (site TTCGCTGCTCA)	0.0258
CGACGACCATGGACCGGTTTTCCCGGTAATCCGTATTTGGG (site CGATGACCTCC)	0.0338
CAAGTCACATGGACCGGTTTTCCCGGTAATCCGTATTTGGG (site TAAGTCACTCC)	0.0086
CACGCGACATGGACCGGTTTTCCCGGTAATCCGTATTTGGC (site CACGCGACTGC)	2.94
GATTTATCATGGACCGGTTTTCCCGGTAATCCGTATTTGGC (site GATTTATCTGC)	1.38
ACCTAGACATGGACCGGTTTTCCCGGTAATCCGTATTTGGG (site ACCTAGACTGC)	0.00778
AGATTATCATGGACCGGTTTTCCCGGTAATCCGTATTTGGA (site AGATTATCTTC)	1.9
ACACGAACATGGACCGGTTTTCCCGGTAATCCGTATTTGTC (site GCACGAACTGA)	0
TACAAACCATGGACCGGTTTTCCCGGTAATCCGTATTTGGT (site TACAAACCTAC)	0.00495
TGTGTAACATGGACCGGTTTTCCCGGTAATCCGTATTTGAC (site TGTGTAACTGT)	0
CGGAAGTCATGGACCGGTTTTCCCGGTAATCCGTATTTGCC (site CGGTAGTCTGG)	1.08

Sequence	recombinant UMI read abundance (log10)
CCAATTACATGGACCGGTTTTCCCGGTAATCCGTATTTGCC (site CCAATTACTGG)	0
AGGACATCATGGACCGGTTTTCCCGGTAATCCGTATTTGCT (site TGGACATCTAG)	1.15
GAATGTCCATGGACCGGTTTTCCCGGTAATCCGTATTTGCA (site GAATGTCCTTG)	1.28
GTAGGATCATGGACCGGTTTTCCCGGTAATCCGTATTTGAC (site GTAGGATCTGT)	3.19
GGGACATCATGGACCGGTTTTCCCGGTAATCCGTATTTGCT (site TGGACATCTAG)	0
CGGGGTACATGGACCGGTTTTCCCGGTAATCCGTATTTGTA (site CGGGGTACTTA)	2.49
CCCGTATCATGGACCGGTTTTCCCGGTAATCCGTATTTGTC (site CCCTTATCTGA)	0
GCTACTGCATGGACCGGTTTTCCCGGTAATCCGTATTTGCG (site GCTACTGCTGG)	0
CGGGATTCATGGACCGGTTTTCCCGGTAATCCGTATTTGCC (site CGGGATTCTGG)	2.58
AGGACTCCATGGACCGGTTTTCCCGGTAATCCGTATTTGAC (site AGGACTGCTGT)	0
ACAGTATCATGGACCGGTTTTCCCGGTAATCCGTATTTGCA (site ACGGTATCTTG)	0.0156
ACAGTATCATGGACCGGTTTTCCCGGTAATCCGTATTTGCA (site ACAGTTTCTTG)	1.23
TGCTAGGCATGGACCGGTTTTCCCGGTAATCCGTATTTGGA (site TGCTAGGCTAC)	0.138
TGCTAGGCATGGACCGGTTTTCCCGGTAATCCGTATTTGCT (site TGCTAGGCTAT)	0.00772
CGCCGTACATGGACCGGTTTTCCCGGTAATCCGTATTTGGT (site CGCCGTACTAA)	0.0124
TAGTTAGCATGGACCGGTTTTCCCGGTAATCCGTATTTGAA (site TAGGTAGCTTT)	0.00722
CAATCCTCATGGACCGGTTTTCCCGGTAATCCGTATTTGCC (site CAATCCTCTGG)	1.54
GAGCTAGCATGGACCGGTTTTCCCGGTAATCCGTATTTGAA (site AAGCTAGCTTT)	1.5
GGCACTCCATGGACCGGTTTTCCCGGTAATCCGTATTTGAA (site GGCACTCCTTT)	0.248
GCCACACCATGGACCGGTTTTCCCGGTAATCCGTATTTGTA (site GCCACCCCTTA)	0.00331
GCGCAAACATGGACCGGTTTTCCCGGTAATCCGTATTTGCT (site GCGGAAACTAG)	0
TCTAATTCATGGACCGGTTTTCCCGGTAATCCGTATTTGCC (site TCTAATTCTGG)	0
ACACGAACATGGACCGGTTTTCCCGGTAATCCGTATTTGTC (site ACACTAACTGA)	0
GTGCAGGCATGGACCGGTTTTCCCGGTAATCCGTATTTGTC (site GTGCAGGCTGA)	2.44
GCAGGTGCATGGACCGGTTTTCCCGGTAATCCGTATTTGGC (site GCAGGTGCTGC)	1.53

— the supplement of paper PMC11208160
